# Assay results from patent US6821774B1, “Compositions and methods for increasing cholesterol efflux and raising HDL using ATP binding cassette transporter ABC1” (CV Therapeutics, Inc., priority 1999, dated 2004).
# Tests used:
# Format in all cases: cell-based, mouse
# RAW 264.7 cells = assay: Apo A-I-mediated cholesterol efflux assay in cholesterol-loaded RAW 264.7 macrophage cells
# Protocol: To determine whether ligands for nuclear receptors affect the process of apolipoprotein-mediated cholesterol efflux, various ligands were tested using the apo A-I-mediated cholesterol efflux assay described in Example 12. The nuclear receptor superfamily includes several members, such as the liver receptor LXR, the retinoid receptor RXR, and the peroxisome proliferator-activated receptor PPAR, which have been implicated in lipid metabolism (Russell. D. W., Cell, 97:539-542 (1999); Spiegelman, B. W., Cell, 93:153-155 (1998); Janowski et al., Nature, 383:728-731 (1996)). […] Using the above-described assay, 9 cis-retinoic acid (RXR ligand), oxysterol (LXR ligand), and fenfibrate (PPAR ligand) was tested to determine the effect on cholesterol efflux.
# To determine whether eicosanoids affect the process of apolipoprotein-mediated cholesterol efflux, PGE1 and PG12 were tested using the apo A-I-mediated cholesterol efflux assay described in Example 12.
# ABC1 mRNA = ABC1 mRNA expression by RT-PCR in RAW 264.7 cells; conditions: 10 μM, 24 hours, serum-free DMEM/BSA
# Protocol: RT-PCR: Quantitative PCR was carried out using the GeneAmp 5700 Sequence Detection System (Perkin-Elmer Applied Biosystems, Foster City, Calif.). Briefly, 500 ng of DNase-treated mRNA was reverse transcribed using random hexamer primers at 2.5 μM. Approximately 5% of this reaction was amplified by PCR using the SYBR green core kit (PE Applied Biosystems, Foster City, Calif.; Cat. #4304886) and human ABC1 primers LF: 5′-[…] (SEQ ID NO: 11) and LR: 5′-[…] (SEQ ID NO: 12) to yield an 82 bp fragment corresponding to nucleotides 7018-7099 of human ABC1. PCR cycle conditions were as follows: 10 minutes 95° C.; followed by 40 cycles of 95° C., 15 seconds; and 60° C., 60 secounds. The mRNA in each sample was quantitated by detecting the increase in fluorescence caused by SYBR green binding to the double-stranded amplification product generated during each PCR cycle. All samples were run in triplicate and normalized against β-actin mRNA, amplified in parallel reactions with primers actinF: 5′-[…] (SEQ ID NO: 54) and actinB: 5′-[…] […]
# Mouse RAW 264.7 cells were grown to subconfluence in DMEM/10% FBS and then treated for 24 hours in serum-free DMEM/BSA with either 9-cis retinoic acid (10 μM), 20-hydroxycholesterol (10 μM), or both ligands together (20 μM total). […] RNA was extracted, treated with DNase, and ABC1 mRNA measured by RT-PCR using PE Biosystems SYBR Green Technology as described in Example 9.
# ABC1 promoter = assay: pAPR1 luciferase reporter assay (ABC1 promoter) in RAW 264.7 cells; conditions: 24 hours
# From the text: Construction of Reporter Plasmids: Plasmid pGL3-Basic (Promega, Madison, Wis.; Cat. #E1751) was used as a control plasmid containing the promoter less luciferase gene. The reporter construct containing the ABC1 promoter and luciferase gene was made by cloning a genomic fragment from the 5′ flanking region of the ABC1 gene (hAPR1 5′ promoter, corresponding to nucleotides 1080-1643 of SEQ ID NO: 3) into the SacI site of the GL3-Basic plasmid to generate plasmid GL-6a. Next, plasmid GL-6a was digested with SpeI and Acc65I. […]
# Luciferase Assay: Following transfection, the cells in each well were lysed in 70 μl of 1× cell lysis reagent (Promega, Madison, Wis., Cat. #E3971), subjected to one freeze-thaw cycle, and the lysate cleared by centrifugation for 5 minutes at 12,000 g. […] The luciferase activity of each lysate was measured as light units using a luminometer. Additionally, the β-galactosidase activity of each lysate was measured using the chemiluminescent assay reagents supplied in the Galacto-light kit according to the manufacturer's instructions (Tropix Inc., Bedford, Mass.: Cat. #BL100G). The normalized luciferase activity for each lysate was determined by dividing the luciferase activity value by the determined β-galactosidase value and reported as relative light units. […]
# [1] = system: 5′ flanking region of ABC1; assay: Luciferase reporter assay with ABC1 5′ flanking region constructs in RAW 264.7 cells; conditions: wild-type sequence nucleotides 1080-1643; single ligand or both together
# Protocol: (§1) Luciferase Assay: Following transfection, the cells in each well were lysed in 70 μl of 1× cell lysis reagent (Promega, Madison, Wis., Cat. #E3971), subjected to one freeze-thaw cycle, and the lysate cleared by centrifugation for 5 minutes at 12,000 g. After centrifugation, 100 μl of luciferase assay reagent (Promega, Madison, Wis.; Cat. #E1501) was added to 10 μl of lysate. The luciferase activity of each lysate was measured as light units using a luminometer. Additionally, the β-galactosidase activity of each lysate was measured using the chemiluminescent assay reagents supplied in the Galacto-light kit according to the manufacturer's instructions (Tropix Inc., Bedford, Mass.: Cat. #BL100G). The normalized luciferase activity for each lysate was determined by dividing the luciferase activity value by the determined β-galactosidase value and reported as relative light units.
# Construction of Reporter Constructs: Reporter construct pAPR1 and control reporter construct pGL3-Basic were obtained as described in Example 15. […]
# Transfection of Reporter Constructs: The RAW 264.7 cells were maintained in culture and transfected with either pGL3-Basic (1 μg), pAPR1 (1 μg), or one of the other reporter constructs according to the method described in Example 15. […] The luciferase activity was measured and reported as relative light units as described in Example 15.
# [2] = system: mutated sterol response element of ABC1 5′ flanking region; assay: Luciferase reporter assay with mutated sterol response element construct (nucleotides 1080-1643) in RAW 264.7 cells; conditions: mutated sequence; oxysterol 10 μM
# Protocol: as §1
# Transfection of Reporter Constructs: The RAW 264.7 cells were maintained in culture and transfected with either pGL3-Basic (1 μg), pAPR1 (1 μg), or one of the other reporter constructs according to the method described in Example 15. […] The luciferase activity was measured and reported as relative light units as described in Example 15. […]
compound,measurement,setting,value
CC1=C(/C=C/C(C)=C\C=C\C(C)=C\C(=O)O)C(C)(C)CCC1 [9-cis retinoic acid],increase in apoAI-induced cholesterol efflux,"RAW 264.7 cells; 30 ng/ml, cholesterol-loaded mouse macrophage cells",~3 fold
same,dose dependence of cholesterol efflux from macrophage cells,"RAW 264.7 cells; 0.3, 3.0 or 30 ng/ml",dose-dependent manner
same,cholesterol efflux,RAW 264.7 cells; apo A-I and 9 cis-retinoic acid 30 ng/ml,16%
same,cholesterol efflux counts,RAW 264.7 cells; apo A-I plus 0.3 ng/ml 9-cis-RA,1522 c.p.m.
same,cholesterol efflux counts,RAW 264.7 cells; apo A-I plus 3.0 ng/ml 9-cis-RA,3568 c.p.m.
same,cholesterol efflux counts,RAW 264.7 cells; apo A-I plus 30 ng/ml 9-cis-RA,8597 c.p.m.
same,change in ABC1 mRNA expression,ABC1 mRNA,increase in ABC1 mRNA expression
same,increase in luciferase activity compared with EtOH control,ABC1 promoter; 9-cis RA 10 μM,16 fold
same,transcriptional response (luciferase activity),[1],produced a transcritional response
CC(C)OC(=O)C(C)(C)Oc1ccc(C(=O)c2ccc(Cl)cc2)cc1 [fenfibrate],increase in cholesterol efflux,"RAW 264.7 cells; 3 μg/ml, cholesterol-loaded mouse macrophage cells",~2 fold
same,cholesterol efflux,RAW 264.7 cells; apo A-I and fenfibrate 3 μg/ml,10%
CC(C)CC[C@@H](O)[C@@H](C)[C@H]1CC[C@H]2[C@@H]3CC=C4C[C@@H](O)CC[C@]4(C)[C@H]3CC[C@]12C [22(R)-hydroxycholesterol],increase in apoAI-induced cholesterol efflux,"RAW 264.7 cells; 5 μg/ml, cholesterol-loaded mouse macrophage cells",~3 fold
same,effect on cholesterol efflux (data not shown),"RAW 264.7 cells; similar assay, RAW 264.7 cells cholesterol-loaded for 48 hours",increase cholesterol efflux
same,transcriptional response (luciferase activity),[2],did not produce a transcriptional response
"CCCCC[C@H](O)/C=C/[C@@H]1[C@H]2C/C(=C/CCCC(=O)O)O[C@H]2C[C@H]1O [PG12, prostacyclin]",increase in apoAI-induced cholesterol efflux,"RAW 264.7 cells; 25 nm, cholesterol-loaded mouse macrophage cells",~2 fold
same,cholesterol efflux,RAW 264.7 cells; apo A-I and PG12 25 nm,10%
"CCCCC[C@H](O)/C=C/[C@H]1[C@H](O)CC(=O)[C@@H]1CCCCCCC(=O)O [PGE1, prostaglandin E1]",increase in apoAI-induced cholesterol efflux,"RAW 264.7 cells; 25 nM, cholesterol-loaded mouse macrophage cells",~3 fold
same,cholesterol efflux,RAW 264.7 cells; apo A-I and PGE1 25 nM,15%
CC(C)CCC[C@](C)(O)[C@H]1CC[C@H]2[C@@H]3CC=C4C[C@@H](O)CC[C@]4(C)[C@H]3CC[C@@]21C [20(S)-hydroxycholesterol],change in ABC1 mRNA expression,ABC1 mRNA,increase in ABC1 mRNA expression
same,increase in luciferase reporter activity compared with EtOH control,ABC1 promoter; 20(S) OH-chol 10 μM,19 fold
same,transcriptional response (luciferase activity),[1],produced a transcritional response
same,transcriptional response (luciferase activity),[2],did not produce a transcriptional response
